Consider seven compounds from US9056835B2, “LPA2 receptor-specific benzoic acid derivatives” (University of Tennessee Research Foundation, priority 2012, dated 2015).

Structures are written as SMILES.

In assay [1] the target is T1, LPA2 (Homo sapiens, UniProt Q9HBW0). As to the kind of experiment: LPA receptor-mediated Ca2+ mobilization assay, LPA2 (RH7777 cells stably expressing LPA2). It counts as cell-based. Details: expressed in transfected cells. The note with it: Ca2+ transients, RH7777 cells stably expressing LPA2; for EC50: read-out: EC50 (μM) (RH7777). How it is done: Similarity searches were performed separately using each fingerprint to quantitate similarity. Hits meeting the 80% similarity threshold from each search were ranked based on the Tanimoto coefficient measure of similarity to a target molecule NSC12404, and the top 75 unique hits from each fingerprint search were selected for further analysis. […] This selected a diverse subset of 27 compounds for biological evaluation by choosing the middle compounds in each cluster. These 27 compounds were tested in Ca^2+ mobilization assays at a concentration of 10 μM using stable cell lines individually expressing LPA2 and also in vector-transfected control cells. Hits activating LPA2 were further tested using cells expressing the other established and putative LPA GPCRs. […] They arbitrarily selected GRI977143 for further characterization in cell-based assays.
The newly-synthesized compounds were tested for their ability to induce Ca^2+ transients in RH7777 cells stably expressing the LPA2 receptor.
The cells were loaded with Fura-2-acetoxymethyl esther (Fura-2/AM) in Krebs buffer containing 0.01% pluronic acid for 30 min and rinsed with Krebs buffer before measuring Ca^2+ mobilization. The ratio of peak emissions at 510 nm after 2 min of ligand addition was determined for excitation wavelengths of 340 nm/380 nm. All samples were run in quadruplicate. […] The half maximally effective concentration (EC50), and inhibitory constant (Ki) values were calculated by fitting a sigmoid function to dose-response data points using KaleidaGraph software (version 4.1, Synergy Software; […]).
Mouse embryonic fibroblast (MEF) cells were isolated from E13.5 LPA1&2 double knockout (DKO) embryos. MEFs were transduced with empty vector or LPA2-containing lentiviruses and selected with 1.5 μg/ml puromycin. Cells were maintained in Dulbecco's modified Eagle medium (DMEM) supplemented with 10% (V/V) fetal bovine serum (FBS), 2 mM L-glutamine, 100 U/mL penicillin, and 100 μg/mL streptomycin. Serum-free medium contained 0.1% (W/V) BSA in DMEM. The rat intestinal epithelial cell line 6 (IEC-6) was obtained from the American Type Culture Collection (Rockville, Md.) at passage 13; passages 16-21 were used in all experiments. IEC-6 cells were maintained in a humidified 37° C. incubator in an atmosphere of 90% air and 10% CO2. Growth medium consisted of DMEM supplemented with 5% heat inactivated FBS, 10 μg/mL insulin, and 50 μg/mL gentamycin. The composition of the serum-starvation medium was the same as that of the full growth medium except that it contained no FBS. The McArdle rat hepatoma cell line (RH7777) stably expressing LPA2 receptors was a gift from Dr. Fumikazu Okajima (Gunma University, Maebashi, Japan). RH7777 cells stably expressing LPA1 or LPA3 receptors were generated in-house and had been characterized earlier. Wild type and LPA receptor (LPAR) stably transfected RH7777 cells were grown in DMEM supplemented with 10% FBS and 2 mM L-glutamine in the presence of 250 μg/ml G418. Chinese hamster ovary (CHO) cells stably expressing either vector or LPA4 receptor were a kind gift from Dr. Takao Shimizu (Tokyo University; Tokyo, Japan). Cells were cultured in Ham's F12 medium containing 10% FBS, 2 mM L-glutamine, and 350 μg/ml G418. Rat neuroblastoma cells (B103) were transduced with the lentivirus harboring wild type of FLAG-LPA5 and selected with puromycin to establish the stable cell lines. The stable cells were maintained in DMEM supplemented with 10% FBS and 0.4 μg/ml puromycin. GPR87- and P2Y10-expressing CHO cells and vector-transfected control cells were a gift from Dr. Norihisha Fujita (Ritsumeikan University; Shiga, Japan). The highly invasive MM1 rat hepatoma cells (gift from Dr. Michiko Mukai, Osaka University, Japan) were grown in suspension in DMEM supplemented with 10% (V/V) FBS, 2 mM L-glutamine, 100 U/mL penicillin, and 100 μg/mL streptomycin.
A general note: Calcium flux is commonly read through the fluorescence of an indicator in the cells.

For a further assay, the system named is C57BL/6 mice. As to the kind of experiment: Radiation-induced mortality, 15.68 Gy PBI-BM5. In kind it is in vivo, mouse. Conditions: 15.68 Gy PBI-BM5, single 1 mg/kg s.c. 24 h after irradiation. How it is done: 10-week old female C57BL/6 mice were exposed to a 15.68 Gy (˜LD60/8-10) dose of γ-irradiation from a ^137Cs Source. Twenty four hours after irradiation mice were treated with a single 200 μL subcutaneous injection of 1 mg/kg of the test compounds 5b, 7a, and 7b dissolved in 0.8% DMSO, 1% ethanol, 2% propanediol in PBS buffer. The animals were observed daily and provided with food and water ad libitum. Form day four onward the mice also were provided with a gel food diet. The study endpoint was mortality by day 20.

Assay [2] has as its target T1, LPA2. As to the kind of experiment: Fura-2AM Ca2+ mobilization in LPA2 DKO MEF cells. It counts as cell-based. The note with it: for EC50: DKO MEF; for Emax: MEF. Details: expressed in transfected cells; host or cells: mouse embryonic fibroblasts from LPA1/2 double-knockout mice, lentiviral transduction. How it is done:
(§1) Fluorescence was read every 3.42 seconds for a total of 70 seconds at Ex/Emλ of 340/510 nm and 380/510 nm. Data (relative fluorescence) was then recorded as a mean fluorescence ratio value of the triplicates for each concentration. Graph Pad Prism version 5.0a was then used to fit a non-linear regression curve in a variable slope model (A) to determine the EC50, Emax, and curve fit (R^2)(B).
(§2) Mouse embryonic fibroblast (MEF) cells used in this study isolated from LPA1/2 double knock out (LPA2-DKO) mice {Lin, 2007 #132}. These MEF express LPA4/5/6 receptors endogenously at lower levels but completely lack LPA1/2/3 receptor subtypes. The human LPA2 receptor was reintroduced into these MEF cells by lentiviral transduction, which are designated LPA2 DKO MEF {Lin, 2007 #132}. Empty vector-transduced MEF cells, designates as EV DKO MEF, were used as a control. Cells were cultured in a DMEM supplemented with 10% v/v fetal bovine serum (FBS), 2 mM L-glutamine, 100 U/ml penicillin, and 100 μg/mL streptomycin. During serum starvation, the growth medium was replaced with DMEM containing 0.1% (w/v) BSA.
as §1

The subject of assay [3] is LPA2 DKO MEF cells. As to the kind of experiment: Adriamycin-induced caspase 3/7 activation in LPA2 DKO MEF and EV DKO MEF cells. It counts as cell-based, mouse. The note with it: 1-3 μM, 1 h before Adriamycin. How it is done:
as §2
(§3) The cells were plated in 48 well plates (2×10^4 cells/well) and cultured overnight in full growth medium. Next morning the growth medium was replaced by serum-free starvation medium and cells were pretreated for 1 hour with LPA (1 or 3 μM), compound 5b or 7b (1, 3 or 10 μM). Apoptosis was elicited by 1.7 μM Adriamycin in vector and LPA2 transduced MEF cells. Caspase 3, 7, 8, 9 activity and DNA fragmentation were measured to assess apoptosis 5 h after Adriamycin exposure.
To measure caspase activation the cells were lysed in 50 μl Caspase-Glow® reagent (Caspase 3/7, 8, 9 Promega, Madison, Wis.). The cells were shaken with the caspase reagent for 30 min at room temperature (RT). After 30 min, the luminescence was measured using a BioTek (Winooski, Vt.) plate reader. The mean caspase activity in triplicates/experimental group±SD was calculated. LPA was used as a positive control in all experiments.

The test system of assay [4] is LPA2 DKO MEF cells. As to the kind of experiment: Adriamycin-induced DNA fragmentation in LPA2 DKO MEF and EV DKO MEF cells. It counts as cell-based, mouse. Here is the method: as §2, §3
DNA fragmentation was quantified by using the Cell Death Detection ELISA assay kit (Roche Diagnostics, Penzberg, Germany). 20 μl cell lysate was incubated with the anti-histone-biotin anti-DNA-peroxidase-conjugated antibody in a 96-well streptavidin-coated plate with shaking at RT for 2 h. After washing the wells three-times with the incubation buffer, 100 μl/well 2,2′-azino-di(3-ethylbenzthiazolin-sulfonate) substrate was added and the absorbance was measured at 405 nm. Protein concentration was measured using BCA Protein Assay Kit (Thermo Fisher Scientific Inc., Rockford, Ill.). DNA fragmentation was expressed as absorbance units/mg protein. LPA was used as a positive control in all experiments.

T1 sequence (Q9HBW0 whole entry): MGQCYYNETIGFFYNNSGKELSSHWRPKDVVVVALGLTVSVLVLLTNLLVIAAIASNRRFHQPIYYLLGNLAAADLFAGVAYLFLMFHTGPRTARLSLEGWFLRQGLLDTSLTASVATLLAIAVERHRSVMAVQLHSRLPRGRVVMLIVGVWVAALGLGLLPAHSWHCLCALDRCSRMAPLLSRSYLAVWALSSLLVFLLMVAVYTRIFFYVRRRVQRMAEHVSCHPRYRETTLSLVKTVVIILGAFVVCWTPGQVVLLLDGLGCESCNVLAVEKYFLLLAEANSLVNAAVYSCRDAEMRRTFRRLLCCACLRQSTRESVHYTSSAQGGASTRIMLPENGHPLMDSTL

In the case of `O=C(O)c1ccc2c(c1)S(=O)(=O)N(CCCCN1C(=O)c3cccc4cccc(c34)C1=O)C2=O` [Compound 9, 2-(4-(1,3-dioxo-1H-benzo[de]isoquinolin-2(3H)-yl)butyl)-3-oxo-2,3-dihydrobenzo[d]isothiazole-6-carboxylic acid 1,1-dioxide], on LPA2 [1], the maximal response (Emax) is 75% and the EC50 is 3.6 µM.

As for `COc1ccc(C(=O)O)c(S(=O)(=O)NCCCCN2C(=O)c3cccc4cccc(c34)C2=O)c1` [Compound 7c, 2-(N-(4-(1,3-dioxo-1H-benzo[de]isoquinolin-2(3H)-yl)butyl)sulfamoyl)-4-methoxybenzoic acid], the EC50 at LPA2 [1] is above 10 µM.

Turning to `O=C(O)c1ccc([N+](=O)[O-])cc1S(=O)(=O)NCCCCN1C(=O)c2cccc3cccc(c23)C1=O` [Compound 7a, 2-(N-(4-(1,3-dioxo-1H-benzo[de]isoquinolin-2(3H)-yl)butyl)sulfamoyl)-4-nitrobenzoic acid], the EC50 on LPA2 [1] and on LPA2 [2] was above 10 µM in each case. For the same compound, in the assay with C57BL/6 mice, the “mortality by day 20” value is on record as “significantly reduced mortality”.

In the case of `O=C(O)c1ccccc1S(=O)(=O)NCCCN1C(=O)c2cccc3cccc(c23)C1=O` [Compound 5a, 2-[3-(1,3-Dioxo-1H,3H-benzo[de]isoquinolin-2-yl)propylsulfamoyl]benzoic acid], the “caspase-3/7 activation (apoptosis)” value is on record as “not in EV DKO MEF cells” in the assay with LPA2 DKO MEF cells [3] (EV DKO MEF) and “significantly reduced apoptosis” with LPA2 DKO MEF cells [3] (LPA2 DKO MEF). Also, the EC50 at LPA2 [1] is 2.2 µM. Further, the “protection from DNA fragmentation” value in the assay with LPA2 DKO MEF cells [4] (EV DKO MEF cells) is “no protection”. In addition, the “reduction of DNA fragmentation” value with LPA2 DKO MEF cells [4] (LPA2 DKO MEF, 10 μM, 60 min pretreatment, Adriamycin) is reported as around 50%. Also, in the assay on LPA2 DKO MEF cells [4] (LPA2 transduced cells, 3 μM), the “protection from Adriamycin induced DNA fragmentation” value is listed as “selectively protected”. In addition, the “mortality by day 20” value with C57BL/6 mice is “significantly reduced mortality”.

In the case of `O=C(O)c1ccccc1S(=O)(=O)NCCCCN1C(=O)c2cccc3cccc(c23)C1=O` [Compound 5b, 2-[4-(1,3-Dioxo-1H,3H-benzo[de]isoquinolin-2-yl)butylsulfamoyl]benzoic acid], on LPA2 [1], the Emax was 100% and the EC50 came out at 0.5 µM. At LPA2 [2], the response was half-maximal at 0.5 µM (EC50) and the Emax turned out to be 100%.

For the compound `O=C(O)c1ccc(Br)cc1S(=O)(=O)NCCCCN1C(=O)c2cccc3cccc(c23)C1=O` [Compound 7b, 4-bromo-2-(N-(4-(1,3-dioxo-1H-benzo[de]isoquinolin-2(3H)-yl)butyl)sulfamoyl) benzoic acid], the “caspase-3/7 activation (apoptosis)” value was “not in EV DKO MEF cells” with LPA2 DKO MEF cells [3] (EV DKO MEF) and “significantly reduced apoptosis” in the assay with LPA2 DKO MEF cells [3] (LPA2 DKO MEF). For the same compound, the Emax at LPA2 [1] and on LPA2 [2] was 100% in each case. In addition, the EC50 on LPA2 [1] was 1 µM; on LPA2 [2], 0.4 µM. In addition, the “mortality by day 20” value in the assay on C57BL/6 mice was “ineffective”.

Take `O=C(O)c1ccccc1S(=O)(=O)NCCCCCN1C(=O)c2cccc3cccc(c23)C1=O` [Compound 5c]: on LPA2 [1], the Emax is 100% and the EC50 was determined as 1.2 µM.

What is called Emax is the maximal effect, on the per cent scale that the assay sets. In general, EC50 refers to the concentration at which the effect is half-maximal.
